Reference: publication PMC9727182, “Identification of pharmacokinetic markers for safflower injection using a combination of system pharmacology, multicomponent pharmacokinetics, and quantitative proteomics study” (Frontiers in Pharmacology, 2022)
Values joined by “and” are separate entries in the source; they are usually repeats but may differ in a detail not shown here. Identical values can stand only once.

How the values were obtained:
[1] = system: H9c2 cardiomyocytes injured by H2O2; assay: TMT quantitative proteomics of H2O2-injured cardiomyocytes; type: cell-based; conditions: 168 μM
Procedure: The procedures for cell culture, group and administration are similar to those in “2.7. […] Briefly, the difference is that H9c2 cells were seeded and cultured in a culture flask with a bottom area of 25 cm^2 with a density 1×10^5 cells/ml. After treatment, about 3×10^7 cells per group were collected for the next quantitative proteomics investigation, which was done by Jingjie PTM Biolabs (Hangzhou, China). All the procedures for quantitative proteomics can be found in the section of “5. Quantitative proteomics” of the Supplementary Material.
The quantitative proteomics study was carried out according to our previous report ([Li et al., 2022]). Relative quantitative values of proteins in two samples were compared via t-test. […] The identified difference proteins between groups were subjected further to principal component analysis (PCA). […] The subcellular structure location was analyzed using these proteins as objectives.

[2] = Stability of 6 compounds of SI in rat plasma; conditions: for 10h in auto-sampler vials RE: extracted rat plasma; for 6h at room temperature RE / Freeze-thaw stability (three cycles) RE / Long-term stability (-80℃,15 days) RE: rat plasma
Description: The LC-MS method was validated by linearity, limits of detection (LOD), limits of quantification (LOQ), precision, accuracy, extraction recovery, matrix effect and stability of the 6 ingredients in rat plasma. Calibration curves were plotted using weighted linear regression of the peak area ratio of analyte to the IS against the corresponding nominal concentration of the analyte. LOD and LOQ were defined as the detectable concentration at which the ratio of signal to noise was more than 3 and 10, respectively. Intra- and inter-day accuracy and precision were assessed by detecting quality control (QC) samples using five replicates of rat samples at three concentration levels on one or three validation days, respectively. Accuracy and precision were expressed by relative error (RE) and relative standard deviation (RSD), respectively. The extraction recovery and matrix effect of the 6 components at above-mentioned three concentration levels were determined. Stability was assessed under the condition of placing un-treated plasma samples at room temperature for 6 h, and extracted plasma samples in auto-sampler for 10 h, as well as placing plasma samples within freeze-thaw three cycles and at −80 °C for 15 days.

[3] = Stability in diluted SI at room temperature; conditions: analyzed at 0, 2, 4, 8, 12, 24, and 48 h
[4] = system: H9c2 cardiomyocytes injured by H2O2; assay: Protection of cardiomyocytes injured by H2O2 (MTT); type: cell-based; conditions: for cell viability vs. model group: pretreated 24 h, 250 μM H2O2 2 h
Procedure: H9c2 cardiomyocytes obtained from Cell Bank of the Chinese Academy of Sciences (Shanghai, China) were cultured in DMEM (high glucose) supplemented with 1% P/S and 15% FBS in 5% CO2 at 37°C. The cells were collected with 0.25% trypsin, followed by re-seeding in 96-well multiplates with a density of 5×10^3 cells per well. The cell experiments were grouped as follows: normal group, model group (H2O2), administration groups and positive control groups (N-Acetyl-L-cysteine, NAC). […] After that, cells were incubated with 0.5 mg/ml of MTT for 4 h under standard condition, followed by addition of 150 µl DMSO into every well. The cell supernatants were finally removed and the optical density (OD) was recorded at 570 nm using a microplate reader (Thermo Fisher Scientific, United States). The protection rate of the compounds on H9c2 cardiomyocytes was calculated as (OD valueadministration group (or NAC group)-OD valuemodel group)/(OD valuenormal group-OD valuemodel group) ×100%.

[5] = Multicomponent pharmacokinetics in rat plasma after i.v. safflower injection (SI); conditions: for AUC(0-inf) / AUC(0-t) / Cmax / MRT inf / MRT last / Vd / clearance / half-life: male, Sprague-Dawley, rat, in vivo, iv
Procedure: The animal experiments were approved by the Animal Care and Use Committee of the College of Animal Science (College of Bee Science), Fujian Agriculture and Forestry University (Approval Number: PZCASFAFU21012). 250 ± 20 g of male Sprague-Dawley (SD) rats were provided by Lab Animal Center in Fujian Medical University (Fuzhou, China).
Ten rats were divided into three groups (Low dose group, n = 4; medium and high groups, n = 3, respectively). […] For each rat, 2 ml of physiological saline was supplemented after 30 min sampling via intraperitoneal injection. The plasma samples were obtained by centrifugation at 3,000 rpm for 10 min and stored at −20°C until analysis.
Clear supernatant (5 μl) was injected into HPLC-MS for bioanalysis.
The sample was separated on a RD-C18 column (4.6 mm × 50 mm, 3.5 μm, Zhongpu Develop, China). The mobile phase incudes water with 0.1% acetic acid (A) and acetonitrile (B). […] The column temperature, flow rate and injection volume were set at 30°C, 0.5 ml/min and 5 μl, respectively.
Non-compartmental model was used to calculate the PK parameters by DAS 3.0 software (Chinese Pharmacologic Society, Beijing, China). A single-tailed t-test was carried out in the study.

SMILES: COc1cc(/C=C/CO)cc(OC)c1O[C@@H]1O[C@H](CO)[C@@H](O)[C@H](O)[C@H]1O [SYR, syringin]
- proteins downregulated vs. M group ([1]; fold change ≤1/1.5, p <0.05): 231 proteins
- proteins upregulated vs. M group ([1]; fold change ≥1.5, p <0.05): 131 proteins
- KEGG pathway regulation ([1]; vs. M group): downregulated the ribosome pathway and upregulated the lysosome pathway
- changed protein expression located at the cytoplasm ([1]; vs. M group): 42.54%
- changed protein expression located at the nucleus ([1]; vs. M group): 30.39%
- 10h in auto-sampler vials RE ([2]; spiked 40 ng/mL): -12.50%
- 10h in auto-sampler vials RE ([2]; spiked 400 ng/mL): 1.61%
- 10h in auto-sampler vials RE ([2]; spiked 10000 ng/mL): 1.41%
- 6h at room temperature RE ([2]; spiked 40 ng/mL): -2.50%
- Freeze-thaw stability (three cycles) RE ([2]; spiked 40 ng/mL): 1.50%
- Long-term stability (-80℃,15 days) RE ([2]; spiked 40 ng/mL): -9.50%
- 6h at room temperature RE ([2]; spiked 400 ng/mL): 3.65%
- Freeze-thaw stability (three cycles) RE ([2]; spiked 400 ng/mL): 2.65%
- Long-term stability (-80℃,15 days) RE ([2]; spiked 400 ng/mL): 0.30%
- 6h at room temperature RE ([2]; spiked 10000 ng/mL): 1.55%
- Freeze-thaw stability (three cycles) RE ([2]; spiked 10000 ng/mL): 2.30%
- Long-term stability (-80℃,15 days) RE ([2]; spiked 10000 ng/mL): 0.98%
- Stability RSD [3]: 2.76%
- cell viability vs. model group ([4]; 5 μM): higher cell viability than the model group
- cell viability vs. model group ([4]; 10 μM): higher cell viability than the model group
- anti-H2O2 injury effect (protection rate) ([4]; 1, 5 and 10 μM): concentration-dependent
- detection in rat plasma ([5]; 1 h after administration (2 ml/kg of SI), preliminary test): can be detected
- systematic exposure of SYR lower than that of HSYA ([5]; after administration of SI): over 10 times
- AUC(0-inf) ([5]; 1 ml/kg): 116 ± 70.5 ng·h/mL
- AUC(0-t) ([5]; 1 ml/kg): 101 ± 57.4 ng·h/mL
- Cmax ([5]; 1 ml/kg): 260 ± 59.4 ng/mL
- MRT inf ([5]; 1 ml/kg): 22.8 ± 9.6 min
- MRT last ([5]; 1 ml/kg): 16.2 ± 6 min
- Vd ([5]; 1 ml/kg): 0.21 ± 0.07 L/kg
- clearance ([5]; 1 ml/kg): 11.5 mL/min/kg
- half-life ([5]; 1 ml/kg): 15 ± 5.4 min
- AUC(0-inf) ([5]; 2 ml/kg): 368 ± 78.7 ng·h/mL
- AUC(0-t) ([5]; 2 ml/kg): 363 ± 81.5 ng·h/mL
- Cmax ([5]; 2 ml/kg): 465 ± 42.9 ng/mL
- MRT inf ([5]; 2 ml/kg): 45 ± 8.4 min
- MRT last ([5]; 2 ml/kg): 41.4 ± 4.2 min
- Vd ([5]; 2 ml/kg): 0.31 ± 0.2 L/kg
- clearance ([5]; 2 ml/kg): 5.67 mL/min/kg
- half-life ([5]; 2 ml/kg): 36.6 ± 15 min
- AUC(0-inf) ([5]; 4 ml/kg): 592 ± 96.6 ng·h/mL
- AUC(0-t) ([5]; 4 ml/kg): 586 ± 94.4 ng·h/mL
- Cmax ([5]; 4 ml/kg): 925 ± 38.5 ng/mL
- MRT inf ([5]; 4 ml/kg): 42.6 ± 13.8 min
- MRT last ([5]; 4 ml/kg): 40.2 ± 12.6 min
- Vd ([5]; 4 ml/kg): 0.31 ± 0.11 L/kg
- clearance ([5]; 4 ml/kg): 6.83 mL/min/kg
- half-life ([5]; 4 ml/kg): 31.8 ± 13.8 min
- detected mean maximum plasma concentration ([5]; rats, after administration of 4 ml/kg of SI): 0.93 μg/mL and 2.5 μM
